These results are taken from ChEMBL document CHEMBL1145570, “Design and synthesis of 2-pyridones as novel inhibitors of the Bacillus anthracis enoyl-ACP reductase” (Bioorg Med Chem Lett, 2008).

SMILES strings stand for the structures. In brackets after ≈: the same amount, converted by molar mass. Some results are limits rather than exact numbers.

The subject of this assay is Bacillus anthracis. The assay can be described thus: microbe, parasite or virus in culture. The format is functional. The note with it: dANR.
Consider `COc1ccc(Oc2ccccc2Cl)c(=O)[nH]1`, for which the MIC was > 100 µg/mL.

Turning to `O=c1[nH]c(OCc2ccccc2)ccc1Cc1ccccc1`, the MIC was > 100 µg/mL.

For `CCOC(=O)c1cc(Cn2ccc(OCc3ccccc3)cc2=O)on1`, the MIC was > 100 µg/mL.

For `NC(=O)c1ccc(Cn2ccc(OCc3ccccc3)cc2=O)c(Cl)c1`, the MIC is > 80 µg/mL.

With `O=c1cc(OCc2ccccc2)ccn1Cc1ccc([N+](=O)[O-])cc1Cl`, the MIC is > 80 µg/mL.

Turning to `[O-][n+]1cc(Cl)ccc1Oc1ccc(Cl)cc1Cl`, the MIC is > 100 µg/mL.

As to `O=c1cc(OCCCn2nnc3ccccc32)ccn1Cc1ccccc1Cl`, the MIC was > 80 µg/mL.

Take `O=c1cc(OCc2ccccc2)ccn1Cc1ccccc1`: the MIC was > 80 µg/mL.

For the compound `O=c1cc(OCc2ccccc2)ccn1Cc1ccccc1Cl`, the MIC is 16 µg/mL (≈ 49.1 µM).

For `O=c1cc(OCCCn2ccnc2)ccn1Cc1ccccc1Cl`, the MIC is > 80 µg/mL.

For `O=c1cc(O)ccn1Cc1ccc(O)cc1`, the MIC is > 80 µg/mL.

Regarding `N#Cc1ccc(Cn2ccc(OCc3ccccc3)cc2=O)c(Cl)c1`, the MIC was > 80 µg/mL.

For `CC(=O)Nc1ccc(Cn2ccc(OCc3ccccc3)cc2=O)c(Cl)c1`, the MIC was > 80 µg/mL.

Turning to `COc1ccc(Cn2ccc(O)cc2=O)cc1`, the MIC was > 80 µg/mL.

Regarding `O=C(O)c1ccc(Cn2ccc(OCc3ccccc3)cc2=O)c(Cl)c1`, the MIC was > 80 µg/mL.

For the compound `Nc1ccc(Cn2ccc(OCc3ccccc3)cc2=O)c(Cl)c1`, the MIC is > 80 µg/mL.

With `COc1ccc(Oc2ccccc2Cl)c[n+]1[O-]`, the MIC was > 100 µg/mL.

Turning to `N#Cc1ccc(COc2ccn(Cc3ccccc3Cl)c(=O)c2)cc1`, the MIC is > 80 µg/mL.

As to `O=c1cc(OCCCn2c3ccccc3c3ccccc32)ccn1Cc1ccccc1`, the MIC is > 80 µg/mL.

Regarding `C#CCn1ccc(OCc2ccccc2)cc1=O`, the MIC is > 100 µg/mL.

Consider `COc1ccc(Cn2ccc(OCCCn3c4ccccc4c4ccccc43)cc2=O)cc1`, for which the MIC was > 80 µg/mL.

Take `O=c1cc(OCc2cccc3ccccc23)ccn1Cc1ccccc1Cl`: the MIC was > 80 µg/mL.

`O=c1cc(OCCCn2c3ccccc3c3ccccc32)ccn1Cc1ccccc1Cl`: the MIC is > 80 µg/mL.

For `O=c1cc(O)ccn1Cc1ccccc1`, the MIC is > 80 µg/mL.

Consider `O=c1cc(OCc2ccc3ccccc3c2)ccn1Cc1ccccc1Cl`, for which the MIC was > 80 µg/mL.

Regarding `O=c1cc(OCCCn2ccc3ccccc32)ccn1Cc1ccccc1Cl`, the MIC is > 80 µg/mL.

Consider `COc1ccc(Oc2ccc(Cl)cc2Cl)c(=O)[nH]1`, for which the MIC was > 100 µg/mL.

The compound `Oc1cc(Cl)ccc1Oc1ccc(Cl)cc1Cl` [TRICLOSAN] returned an MIC of 3.1 µg/mL (≈ 10.7 µM).
